In patent publication US20240148671A1, “METHODS FOR IMPROVING POULTRY HEALTH” (CORNELL UNIVERSITY, priority 2021, published 2024):

Key:
[1] = test system: DMT1 (Divalent metal transporter 1); assay: Gene expression (RT-PCR), DMT1; assay type: in vivo, Gallus gallus; conditions: at hatch, b173: compared with the other treatments and the controls, b190: comparator not stated, p<0.05
Method: The pure resveratrol and pterostilbene were individually diluted in 18 MΩ H2O. The intra-amniotic administration followed the methodology previously described. On the 17th day of embryonic development, the eggs with viable embryos (n=60) were randomly allocated into 6 groups (n=10) with a similar weight frequency distribution. For the intra-amniotic treatment, 1 mL of solution per egg was injected into the amniotic fluid (via candling) with the aid of a 21-gauge needle. […]
The RNA was isolated as described previously (RNeasy Mini Kit, Qiagen Inc., Valencia, CA, USA), and 30 mg of the duodenal tissue or liver tissue (n =8) was used to extract the total RNA. […] Finally, the RNA was eluted in 50 μL of RNase-free water and quantified by absorbance at 260 and 280 nm.
RT-PCR was conducted as described. […] The cDNA content was assessed by absorbance at 260 and 280 nm, with an extinction coefficient of 33 (single-stranded DNA). Genomic DNA contamination was evaluated via a real-time RT-PCR assay for the reference gene samples [17,18,30]. […]
The procedures were performed as previously published. […] The optimal MgCl2 concentration achieved, for each reaction, an amplification plot (lowest cycle product, Cp), the uppermost fluorescence intensity and the steepest amplification slope. […]

cecal microbiome = assay: 16S rRNA gene sequencing of the cecal microbiota; assay type: in vivo, Gallus gallus; conditions: cecal content at hatch
Method: The pure resveratrol and pterostilbene were individually diluted in 18 MΩ H2O. The intra-amniotic administration followed the methodology previously described. On the 17th day of embryonic development, the eggs with viable embryos (n=60) were randomly allocated into 6 groups (n=10) with a similar weight frequency distribution. For the intra-amniotic treatment, 1 mL of solution per egg was injected into the amniotic fluid (via candling) with the aid of a 21-gauge needle. After the procedure, the injection sites were sealed with cellophane tape, and the eggs were distributed into six groups: (1) no injection; (2) 18 MΩ H2O; (3) 5% inulin; (4) 5% resveratrol; (5) 5% pterostilbene; and (6) synergistic: 4.75% resveratrol and 0.25% pterostilbene. […] The eggs were equally distributed in each incubator location to reduce possible allocation bias. Upon hatching (21 days), the hatchlings were euthanized by CO2 exposure, and the blood, liver, heart, pectoral muscle, small intestine and cecum were obtained.
As was formerly described, cecal samples were used to extract microbial genomic DNA (PowerSoil DNA isolation kit, MoBio Laboratories Ltd., Carlsbad, CA, USA). […] The PCR products were purified (Beckman Coulter, Atlanta, GA, USA) and quantified (Quant-iT PicoGreen dsDNA quantitation kit, Invitrogen, Carlsbad, CA, USA). […]
The 16S rRNA gene sequence analysis was performed using QIIME2 as previously described. The sequence reads were demultiplexed by per-sample barcodes, and the Divisive Amplicon Denoising Algorithm (DADA2) was used to correct the Illumina-sequenced amplicon read errors. […] The alpha and β diversity were calculated from samples containing at least 9.800 sequences. The alpha diversity parameter, a measure of the richness of the bacterial community, was calculated using the Shannon Index, and the beta diversity was assessed by a Jaccard similarity distance matrix. […]
The values in this paper were expressed as means and standard errors of the means (SEM). […] The results were analyzed by Analysis of Variance (ANOVA). […]

Oc1ccc(C=Cc2cc(O)cc(O)c2)cc1 [5% Resveratrol, Resveratrol]
DMT1 relative gene expression ([1]; listed as 5% resveratrol): lowest | DMT1 relative gene expression ([1]; listed as resveratrol): downregulated significantly | β diversity of the cecal microbiome (Jaccard distances), comparison between groups (cecal microbiome; n=5, 5% inulin vs all other experimental groups (p<0.01), 5% pterostilbene vs 18 MΩ H2O control (p<0.05), stilbene groups among each other): strong clustering | Most differentially enriched taxa (LEfSe) vs no injection control (cecal microbiome; compared with the no injection control group, p<0.05 (FIGS. 5A-5B)): Enterobacteriales order and Enterobacteriaceae family
